The target in series [1] is CB2R WT (Homo sapiens, UniProt P34972). Briefly: [35S]GTPγS G protein activation assay, CB2R WT. The series is classed as biochemical. (GTPγS is a poorly hydrolysed GTP analogue; its binding reports G protein activation.)
Series [2] concerns the target CB2R-I110^3.29L (Homo sapiens, UniProt P34972, I110L). Briefly: [35S]GTPγS assay, CB2R I110L mutant. Format: biochemical.
Series [3] has as its target CB2R-I110^3.29A (Homo sapiens, UniProt P34972, I110A). Briefly: [35S]GTPγS assay, CB2R I110A mutant. Format: biochemical.
Series [4] has as its target CB2R-S285^7.39A (Homo sapiens, UniProt P34972, S285A). Briefly: [35S]GTPγS assay, CB2R S285A mutant. The series is classed as biochemical.
The target of series [5] is CB2R-F117^3.36A (Homo sapiens, UniProt P34972, F117A). Kind of series: [35S]GTPγS assay, CB2R F117A mutant. The series is classed as biochemical.
For series [6], the target named is CB2R-H95^2.65A (Homo sapiens, UniProt P34972, H95A). Briefly: [35S]GTPγS assay, CB2R H95A mutant. The series is classed as biochemical.
The target in series [7] is CB2R-V261^6.51L (Homo sapiens, UniProt P34972, V261L). Briefly: [35S]GTPγS assay, CB2R V261L mutant. The series is classed as biochemical.
Series [8] addresses CB2R-L185^ECL2H (Homo sapiens, UniProt P34972, L185H). Kind of series: [35S]GTPγS assay, CB2R L185H mutant. The series is classed as biochemical.
In series [9] the target is CB2R-L182^ECL2I (Homo sapiens, UniProt P34972, L182I). Briefly: [35S]GTPγS assay, CB2R L182I mutant. The series is classed as biochemical.
The target of series [10] is CB2R-E181^ECL2D (Homo sapiens, UniProt P34972, E181D). Briefly: [35S]GTPγS assay, CB2R E181D mutant. The series is classed as biochemical.
For series [11], the target named is CB2R-Quadruple^TM1,7 (Homo sapiens, UniProt P34972, C40S/K279T/K33Q/V36I). Kind of series: [35S]GTPγS assay, CB2R quadruple mutant. Format: biochemical.
Series [12] deals with hCB1R WT (Homo sapiens, UniProt P21554). Kind of series: [35S]GTPγS G protein activation assay, CB1R WT. The series is classed as biochemical.
Series [13] concerns the target CB1R-H270^ECL2L (Homo sapiens, UniProt P21554, H270L). Kind of series: [35S]GTPγS assay, CB1R H270L mutant. The series is classed as biochemical.
Series [14] has as its target CB1R I267ECL2L (Homo sapiens, UniProt P21554, I267L). Briefly: [35S]GTPγS assay, CB1R I267L mutant. Format: biochemical.
Series [15] has as its target T1, CB1R D266ECL2E (Homo sapiens, UniProt P21554, D266E).
T1 construct: The WT CB1R and CB2R genes were subcloned into vector pcDNA3.1; HA signal peptide (N); expressed in transfected cells; host or cells: HEK293T (transient, membrane homogenates)
Briefly: [35S]GTPγS assay, CB1R D266E mutant. Format: biochemical.

In series [16] the test system is CB1R QuadrupleTM1,7. Kind of series: [35S]GTPγS assay, CB1R quadruple mutant. Format: biochemical, human.
Series [17] deals with cisplatin-induced nephropathy. Briefly: Cisplatin-induced nephropathy in wild type mice. Format: in vivo, C57BL/6J mice. As for the experimental part: (§1) Ten to twelve-week-old male/female C57BL/6J mice were obtained from The Jackson Laboratory (Bar Harbor, ME, USA). CB2R knockout mice (CB2R^−/−) and their wild-type littermates (CB2R^+/+) were developed as described previously and had been backcrossed to a C57BL/6J background. All animals were kept in a temperature-controlled environment (20–22 °C) with a 12 h light–dark cycle and were always allowed free access to food and water. All animal experiments reported in this manuscript complied with the National Institutes of Health “Guide for the Care and Use of Laboratory Animals” (NIH publication 86–23 revised 1985) and were approved by the Institutional Animal Care and Use Committee of the National Institute on Alcohol Abuse and Alcoholism (Bethesda, MD).
(§2) The well-established model of cisplatin-induced nephropathy was used[63]. Mice (CB2R^−/− and CB2R^+/+) were sacrificed 72 h after a single injection of cisplatin (cis-diamine platinum (II) dichloride (Sigma#P4394) 25 mg/kg i.p.; freshly dissolved in physiological saline) by cervical dislocation under deep anesthesia with 5% isoflurane, for collection of blood and tissue samples. LEI-102 was given i.p. or by oral gavage (p.o.) at 0.3, 3.0, and 10 mg/kg every day, starting 1.5 h before the cisplatin exposure. The drug was dissolved in a vehicle of DMSO:Tween 80:saline, 1:1:18. After administration of LEI‐102, mice were killed by cervical dislocation under deep anesthesia with 5% isoflurane, for collection of blood and tissue samples at the time described in the figure. The tetrad assay in mice has previously been described in detail.
(§3) Markers of kidney dysfunction (BUN and CREA), histopathology (PAS staining), immunostaining or ELISA for 3-nitrotyrosine (3-NT; Cell Biolabs #STA-305) and 4-hydroxynonenal (4-HNE; Cell Biolabs#STA-838), and real-time PCR (Primers from Qiagen, SYBER Green Vita Scientific#MEIF01301, High-Capacity cDNA Reverse Transcription Kit, Thermo Fisher Scientific#4368813) for inflammatory cytokines were performed as previously described. Tubular damage scores were determined based on the percentage of tubules showing epithelial necrosis where 0= normal; 1, <10%; 2, 10–25%; 3, 26–75%; 4, >75%. Tubular necrosis was defined as the loss of the proximal tubular brush border, blebbing of apical membranes, tubular epithelial cell detachment from the basement membrane, or intraluminal aggregation of cells and proteins. The morphometric examination was performed in a blinded manner. Ten fields were scored from each mouse kidneys at 200× magnification, and average scores were determined for each mouse. For final quantification graph, average tubular damage scores of six mice/group were plotted.

The test system of series [18] is cisplatin-induced nephropathy, CB2R knockout mice (CB2R−/−). Briefly: Cisplatin-induced nephropathy in CB2R knockout mice. The series is classed as in vivo. Conditions: Cisplatin KO; mean, n = 6. As for the experimental part:
as §1, §2, §3

Setting [19] is: Cisplatin WT (Fig5F), mean, n = 6.
[20] abbreviates: cisplatin 25 mg/kg i.p. alone, 72 h, mean, n = 6 (Fig5A).
The mark [21] stands for this setting: kidney, cisplatin alone, mean, n = 6, vehicle mean 1.0.
Where [22] appears, read: kidney, cisplatin alone, mean, n = 6, vehicle mean 1.00.

Chain of CB2R WT (P34972 whole entry): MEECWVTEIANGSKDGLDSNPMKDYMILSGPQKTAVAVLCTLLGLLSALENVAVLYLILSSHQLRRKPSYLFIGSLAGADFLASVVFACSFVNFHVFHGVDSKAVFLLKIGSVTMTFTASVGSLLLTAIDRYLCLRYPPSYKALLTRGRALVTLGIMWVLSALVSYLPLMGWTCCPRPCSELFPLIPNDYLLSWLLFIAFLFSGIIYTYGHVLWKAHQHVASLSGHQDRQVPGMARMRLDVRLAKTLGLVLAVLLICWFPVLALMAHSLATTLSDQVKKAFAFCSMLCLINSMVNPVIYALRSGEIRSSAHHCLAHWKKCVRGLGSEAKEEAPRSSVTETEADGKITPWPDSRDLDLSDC
Chain of CB2R-H95^2.65A (P34972 whole entry H95A): as the sequence (P34972 whole entry) above, with H95A counted along it
Chain of CB2R-E181^ECL2D (P34972 whole entry E181D): as the sequence (P34972 whole entry) above, with E181D counted along it
T1 sequence (P21554 whole entry D266E): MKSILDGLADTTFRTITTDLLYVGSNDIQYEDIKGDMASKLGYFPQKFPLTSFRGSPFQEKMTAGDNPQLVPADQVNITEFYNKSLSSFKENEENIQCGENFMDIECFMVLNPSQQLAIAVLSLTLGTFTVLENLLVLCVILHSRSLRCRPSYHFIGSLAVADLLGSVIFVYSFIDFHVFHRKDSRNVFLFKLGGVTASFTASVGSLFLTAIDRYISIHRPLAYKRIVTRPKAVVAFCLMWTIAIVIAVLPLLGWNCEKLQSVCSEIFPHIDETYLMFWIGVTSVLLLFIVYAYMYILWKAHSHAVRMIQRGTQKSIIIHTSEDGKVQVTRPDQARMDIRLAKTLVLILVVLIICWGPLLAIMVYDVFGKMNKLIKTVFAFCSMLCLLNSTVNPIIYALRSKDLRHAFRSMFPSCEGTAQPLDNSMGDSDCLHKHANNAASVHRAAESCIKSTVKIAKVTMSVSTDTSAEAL
Chain of CB2R-V261^6.51L (P34972 whole entry V261L): as the sequence (P34972 whole entry) above, with V261L counted along it
Chain of CB2R-S285^7.39A (P34972 whole entry S285A): as the sequence (P34972 whole entry) above, with S285A counted along it
Chain of CB2R-L182^ECL2I (P34972 whole entry L182I): as the sequence (P34972 whole entry) above, with L182I counted along it
Chain of CB2R-L185^ECL2H (P34972 whole entry L185H): as the sequence (P34972 whole entry) above, with L185H counted along it
Chain of CB1R-H270^ECL2L (P21554 whole entry H270L): as the sequence (P21554 whole entry D266E) above, with E266D, H270L counted along it
Chain of CB2R-Quadruple^TM1,7 (P34972 whole entry K33Q/V36I/C40S/K279T): as the sequence (P34972 whole entry) above, with K33Q, V36I, C40S, K279T counted along it
Chain of CB2R-F117^3.36A (P34972 whole entry F117A): as the sequence (P34972 whole entry) above, with F117A counted along it
Chain of hCB1R WT (P21554 whole entry): as the sequence (P21554 whole entry D266E) above, with E266D counted along it
Chain of CB1R I267ECL2L (P21554 whole entry I267L): as the sequence (P21554 whole entry D266E) above, with E266D, I267L counted along it
Chain of CB2R-I110^3.29L (P34972 whole entry I110L): as the sequence (P34972 whole entry) above, with I110L counted along it
Chain of CB2R-I110^3.29A (P34972 whole entry I110A): as the sequence (P34972 whole entry) above, with I110A counted along it

For the compound `CCCCCCC(C)(C)c1ccc([C@@H]2C[C@H](O)CC[C@H]2CCCO)c(O)c1` [CP55,940], the Emax in series [1] was 98 ± 4%; in series [2], 96 ± 3%; in series [3] it was 30 ± 2%; in [4] it was 25 ± 5%; in [5] it was -1 ± 14%; in [6], 68 ± 11%. The Emax in series [7] is 12 ± 7%; in series [8], 142 ± 16%; in series [9], 19 ± 2%; in series [10] it was 19 ± 10%; in [11] it was 18 ± 14%. Also, the “Emax (%)” value in series [1] was 99 ± 3%. Besides, the “drop in potency compared to WT” value in [6] came to 40 fold. Also, the Agonist-mediated activation in series [12] is 1.2 ± 0.1 fold over its basal; in series [13] it was 1.6 ± 0.1 fold over its basal; in series [14] it was 1.0 ± 0.0 fold over its basal; in [15] it was 1.4 ± 0.1 fold over its basal; in series [16], 1.8 ± 0.1 fold over its basal.

In series [17] (setting [19]), `N.N.[Cl][Pt][Cl]` [Cisplatin, cis-diamine platinum (II) dichloride] had a BUN of 170, a CREA of 1.7 and a Tubular damage score of 2.16. Besides, in series [17] (setting [20]), the BUN is given as 167.5 mg/dL and the CREA was found to be 1.8 mg/dL. The “serum creatinine and blood urea nitrogen levels” value in series [17] (cisplatin 25 mg/kg i.p., 72 h, wild type mice vs vehicle) is “marked elevations”. The compound also registered a Tubular damage score in [17] (cisplatin alone, PAS staining, score 0-4, mean, n = 6 (Fig5B)) of 2.4. Moreover, in series [17] (setting [21]), the “HNE (HNE adducts, ELISA)” value is reported as 4.3 and the “NT (protein nitration, ELISA)” value worked out at 5.7. In addition, in [17] (setting [22]), the “IL1b expression (real-time PCR)” value came out at 4.93 and the “TNFa expression (real-time PCR)” value turned out to be 3.36. In [18], this compound came in with a BUN of 290, a CREA of 3.7 and a Tubular damage score of 2.86.

As usually defined, the Emax is the greatest response seen or fitted, relative to the assay's reference.

Source of the values: paper PMC10017709, “Structural basis of selective cannabinoid CB2 receptor activation” (Nature Communications, 2023).
